# In US10471054B2, “CDK1 inhibitors of acetyl chrysin mannich base derivatives, synthesis and use thereof” (priority 2016, dated 2019):
# What was measured:
# [1] = Main metabolic pathways, glucose aldehyde acid metabolism; settings: in vivo
# Text: (I) Neutral degradation in normal cells: CH-j is hydrolyzing into Hydroxy-phenyl-acetic acid (M152), 1-(2, 4, 6-Trihydroxy-phenyl)-ethanone (M168) and N-hydroxymethyl-piperidin-4-one (M129) as the main metabolic pathways.
# Flavopiridol, p276-00 and Vorciclib of Chrysin-organic amine derivatives, duo to mainly C7-glucose aldehyde acidification metabolites by oral, only a small amount is into the tissue cells. In the tissue cells, it is not easy to be metabolized in part because of the organic amine substituents, thus producing strong cytotoxicity. […] CH-j can enhance I phase metabolism and inhibit II phase metabolism. […] [Scientific Reports, 2015, 5: 13626; Fitoterapia, 2015, 107:36-34.]
# [2] = tested on: MCF-7; assay: Autophagy in MCF-7; type: cell-based; settings: 50 μM for 9 h and 24 h
# [3] = biological target: CDK1 (Homo sapiens, UniProt P06493); assay: CDK1 inhibition activity; type: biochemical
# Chain of CDK1 (P06493 whole entry, species assumed): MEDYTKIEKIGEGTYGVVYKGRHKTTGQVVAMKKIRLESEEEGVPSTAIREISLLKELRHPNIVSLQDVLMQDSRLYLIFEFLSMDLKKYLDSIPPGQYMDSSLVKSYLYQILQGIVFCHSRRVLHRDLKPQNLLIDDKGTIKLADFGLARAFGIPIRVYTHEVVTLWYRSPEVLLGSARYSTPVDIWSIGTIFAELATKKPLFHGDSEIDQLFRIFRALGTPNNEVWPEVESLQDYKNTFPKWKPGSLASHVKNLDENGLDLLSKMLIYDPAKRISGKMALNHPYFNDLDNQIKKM
# Chain of CDK1 (P14635 whole entry partner, species assumed): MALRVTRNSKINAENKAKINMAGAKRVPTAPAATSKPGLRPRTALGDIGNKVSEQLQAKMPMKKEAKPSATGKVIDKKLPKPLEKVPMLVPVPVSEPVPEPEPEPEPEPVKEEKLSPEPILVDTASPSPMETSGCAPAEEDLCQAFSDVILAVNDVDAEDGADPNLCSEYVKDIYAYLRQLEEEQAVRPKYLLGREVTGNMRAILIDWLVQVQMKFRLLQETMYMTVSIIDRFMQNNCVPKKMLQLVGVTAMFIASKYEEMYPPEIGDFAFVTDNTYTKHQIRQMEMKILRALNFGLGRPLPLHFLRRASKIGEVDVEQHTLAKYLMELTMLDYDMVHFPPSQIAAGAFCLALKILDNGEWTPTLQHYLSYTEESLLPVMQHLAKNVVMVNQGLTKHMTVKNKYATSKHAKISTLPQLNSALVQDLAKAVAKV
# [4] = tested on: PBMCs, activated lymphocytes, human normal Liver cells; assay: H2O2 level in blood and normal cells, PF1-H2O2 fluorescent probe; type: cell-based; settings: CH-j: PBMCs and activated lymphocytes; BA-j: activated lymphocyte
# Protocol: The cells are cancer cells (MCF-7, GBC-823, Hep G2) and normal cells (Liver, COS-7, PBMCs). According to the literature [Scientific Reports, 2015, 5: 13626; Anti-cancer Agents in Medicinal Chemistry, 2016, 16: 914-924.], in vitro cultured cells was given to CH-j 25 μM for 3.5 h, added PF1-H2O2 selective fluorescence probe 10 μM for 0.5 h and detected the concentration of H2O2 in cells, and performed fluorescence imaging by results shown in FIG. 1.
# FIG. 1-3, FIG. 1-4, The fluorescence imaging by PF1-H2O2 10 μM is that CH-j […] for 4 h affected the level of H2O2 in MCF-7, GBC-823, Hep G2 and Liver.
# FIG. 1-3: CH-j/BA-j affects the levels of H2O2 in blood cells, X-coordinate is the concentration of CH-j/BA-j concentration (μM), and Y-coordinate the intracellular levels of H2O2 (μM) for 4 h with PF1-H2O2 10 μM by Fluorescence Microplater Reader (488 nm/525 nm).
# [5] = tested on: MCF-7; assay: Hoechst 33258 fluorescence staining, apoptosis; type: cell-based; settings: 0, 5, 10, 20 μM for 24 h
# Protocol: Hoechst 33258 is an active fluorescent dye with DNA specific binding, which is mainly combined with base area of DNA, which emits blue fluorescence when stimulated by ultraviolet light. The living cells emit uniform fluorescence, the apoptotic cells are bright blue fluorescence due to their chromatin fixation, dense and concentrated nuclei.
# MCF-7 was treated with 0, 5, 10, 20 μM of CH-f and CH-j for 24 h, Hoechst 33258 fluorescence staining, and cell morphological changes were shown in FIG. 3-1. […] CH-f and CH-j are completely different from the cytotoxic drug HCPT, which appears to be apoptotic at low doses and necrotic at high doses in BGC-823.
# FIG. 3-1 Hoechst 33258 staining results for MCF-7.
structure (smiles),measurement,setting,value
"CC(=O)c1c(O)c(CN2CCC(O)CC2)c2oc(-c3ccccc3)cc(=O)c2c1O [CH-j, 6-Acetyl-5,7-dihydroxy-8-(4-hydroxy-piperidin-1-ylmethyl)-2-phenyl-chromen-4-one]",Dependence of metabolic pathway on CYP3A4,[1],independent of CYP3A4
same,Autophagy,[2],can cause autophagy
same,"CDK1 inhibition, times stronger than BA-j",[3],about 2 times
same,CDK1 50% inhibitory concentration,[3]; read-out: inhibiting CDK1 CC50,150 nM
same,Dose dependence of H2O2 level,[4],no significant dose-dependent manner
same,Apoptosis by Hoechst 33258 staining,[5],apoptosis cell percentage in dose dependent increase
